In the first experiment the target is human P2X3 receptor (Homo sapiens (Human), UniProt P56373). As to the kind of experiment: Evaluation of human P2X3 receptor inhibitory activity (Fluo-3 calcium fluorescence, FDSS 3000, ATP stimulation).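 Note: stimulus was 50 nM ATP with fluorescence followed for 3 min, and the response per well was peak post-ATP fluorescence divided by the reading at measurement start.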 As to conditions: C6BU-1 cells stably expressing human P2X3 receptor. Type of experiment: cell-based.
human P2X3 receptor, sequence (P56373 whole entry): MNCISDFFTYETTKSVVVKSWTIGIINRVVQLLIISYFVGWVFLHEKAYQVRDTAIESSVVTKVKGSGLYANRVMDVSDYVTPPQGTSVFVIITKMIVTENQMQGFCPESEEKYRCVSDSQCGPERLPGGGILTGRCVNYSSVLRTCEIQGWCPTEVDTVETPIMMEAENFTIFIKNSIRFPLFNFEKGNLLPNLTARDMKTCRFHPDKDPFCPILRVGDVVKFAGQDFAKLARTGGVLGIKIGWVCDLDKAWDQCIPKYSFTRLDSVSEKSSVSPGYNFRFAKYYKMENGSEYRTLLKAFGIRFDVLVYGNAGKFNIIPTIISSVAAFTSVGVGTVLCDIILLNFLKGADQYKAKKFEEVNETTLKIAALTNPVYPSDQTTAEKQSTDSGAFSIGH
Broadly, the IC50 is the midpoint of a concentration-inhibition curve. With `COC(=O)[C@H](Cn1c(=O)[nH]/c(=N\c2ccc(OC(C)C)c(C)c2)n(Cc2ccc(Cl)cc2)c1=O)OC` [Compound I-0806, (S)-1-(4-chlorobenzyl)-6-(3-mehyl-4-isopropoxyphenylimino)-3-(2-methoxycarbonyl-2-methoxy-ethyl)-1,3,5-triazinane-2,4-dion], the IC50 worked out at 12 nM.
Still for that read-out and setting: to `COC(=O)c1cccc(Oc2ccc(/N=c3\[nH]c(=O)[nH]c(=O)n3Cc3ccc(Cl)cc3)cc2)c1` [Compound I-1919] belongs 214 nM.
Turning to `CCOC(=O)CCn1c(=O)[nH]/c(=N\c2ccc(CC(C)C)c(C)c2)n(Cc2ccc(Cl)cc2)c1=O` [Compound I-1251], the IC50 is 17 nM.
On the same count and under the same terms, to `CCn1c(=O)[nH]/c(=N\c2ccc(OCCN(C)C(C)=O)cc2)n(Cc2ccc(Cl)cc2)c1=O` [Compound I-2197] belongs 215 nM; to `Cc1[nH]c2ccc(/N=c3\[nH]c(=O)n(CCO)c(=O)n3Cc3ccc(Cl)cc3)cc2c1C` [Compound I-2042], 23 nM.
On the same count and under the same terms, to `Cc1nc2ccc(/N=c3\[nH]c(=O)n(C[C@H](C)C(=O)O)c(=O)n3Cc3ccc(Cl)cc3)cc2nc1C` [Compound I-1348] belongs 918 nM; to `COc1ccc(CN2C(=O)CC[C@H]2Cn2c(=O)[nH]/c(=N\c3ccc(OC(C)C)c(F)c3)n(Cc3ccc(Cl)cc3)c2=O)cc1` [Compound I-0684], 30 nM; to `C[C@@H](Cn1c(=O)[nH]/c(=N\c2ccc3c(c2)CCC3)n(Cc2ccc(Cl)cc2)c1=O)C(=O)O` [Compound I-0772], 477 nM.
Take `Cc1ccc(Cn2c(=O)n(CCC(=O)O)c(=O)[nH]/c2=N\c2ccc3[nH]c(=O)sc3c2)cc1` [Compound I-2133]: the IC50 was found to be 182 nM.
On the same count and under the same terms, to `COC(=O)[C@@H](C)Cn1c(=O)[nH]/c(=N\c2ccc(N3CCCCCC3)cc2)n(Cc2ccc(Cl)cc2)c1=O` [Compound I-1233] belongs 325 nM.
Same read-out and setting: to `Cn1c(=O)[nH]/c(=N\c2ccc(Oc3cccc(C(=O)O)c3)cc2)n(Cc2ccc(Cl)cc2)c1=O` [Compound I-2064] belongs 40 nM; to `COC(=O)[C@H](C)[C@H](C)n1c(=O)[nH]/c(=N\c2cccc(C(F)(F)F)c2)n(Cc2ccc(C)cc2)c1=O` [Compound I-1309], 21 nM; to `CCOC(=O)CCn1c(=O)[nH]/c(=N\c2ccc(Oc3cccnc3)cc2)n(Cc2ccc(C)cc2)c1=O` [Compound I-1229], 4 nM.
Still for that read-out and setting: to `COC(=O)C(C)(C)Cn1c(=O)[nH]/c(=N\c2ccc3c(c2)cc(C)n3C)n(Cc2ccc(Cl)cc2)c1=O` [Compound I-0597] belongs 507 nM; to `Cc1cc2cc(/N=c3\[nH]c(=O)n(CC(CO)CO)c(=O)n3Cc3ccc(Cl)cc3)ccc2o1` [Compound I-2070], 19 nM.
For the molecule `COC(=O)[C@H](C)[C@H](C)n1c(=O)[nH]/c(=N\c2ccc(Oc3cccnc3)cc2)n(Cc2ccc(Cl)cc2)c1=O` [Compound I-1377], the IC50 is 7 nM.
Same read-out and setting: to `Cc1ccc(Cn2c(=O)n(CCCC(=O)O)c(=O)[nH]/c2=N\c2ccc(Oc3ccnc(C)c3)cc2)cc1` [Compound I-1405] belongs 26 nM.
On the same count and under the same terms, to `Cc1cc(/N=c2\[nH]c(=O)n(C[C@H](C)C(=O)O)c(=O)n2Cc2ccc(Cl)cc2)ccc1OCC(F)F` [Compound I-0741] belongs 50 nM; to `Cc1cc(/N=c2\[nH]c(=O)n(Cc3cccnc3OCCOC3CCCCO3)c(=O)n2Cc2ccc(Cl)cc2)ccc1OC(C)C` (centres unmarked) [Compound I-0714], 30 nM; to `Cc1cc(/N=c2\[nH]c(=O)n([C@H]3CCOC3=O)c(=O)n2Cc2ccc(Cl)cc2)ccc1OC(C)C` [Compound I-0775], 41 nM.
On the same count and under the same terms, to `Cc1ccc(Cn2c(=O)n(C[C@H](C)C(=O)O)c(=O)[nH]/c2=N\c2ccc(OC3CCC3)cc2)cc1` [Compound I-1220] belongs 13 nM.

The same experiment, now with this note: C6BU-1 cells stably expressing human P2X3 receptor, Fluo-3 fluorescence, FDSS 3000.
As for `C[C@@H](C(=O)O)[C@H](C)n1c(=O)[nH]/c(=N\c2ccc3c(c2)CCCC3=O)n(Cc2ccc(Cl)cc2)c1=O` [Compound I-1784], the IC50 is 950 nM.
Regarding `CCC(CC)Oc1ccc(/N=c2\[nH]c(=O)n(C[C@H](C)C(=O)O)c(=O)n2Cc2ccc(C)cc2)cc1` [Compound I-1062], the IC50 was found to be 37 nM.
Same read-out and setting: to `Cc1ccc(Cn2c(=O)n(C[C@H](C)C(=O)O)c(=O)[nH]/c2=N\c2ccc(OC(C)C)c(C#N)c2)cc1` [Compound I-0961] belongs 74 nM.
Regarding `Cc1ccc(Cn2c(=O)n(CCC(N)=O)c(=O)[nH]/c2=N\c2ccc3nc(C)sc3c2)cc1` [Compound I-1671], the IC50 is 6 nM.
Same read-out and setting: to `O=c1[nH]/c(=N\c2ccc(Oc3ccnc(O)c3)cc2)n(Cc2ccc(Cl)cc2)c(=O)n1CCCO` [Compound I-1713] belongs 3 nM.
The same measure, in the same setting: to `COC(=O)[C@@H](C)Cn1c(=O)[nH]/c(=N\c2cccc(CC(C)C)c2)n(Cc2ccc(C)cc2)c1=O` [Compound I-1132] belongs 586 nM.
Turning to `Cc1ccc(Cn2c(=O)n(C[C@H](C)C(=O)O)c(=O)[nH]/c2=N\c2ccc(OC(C)C)c(Br)c2)cc1` [Compound I-0909], the IC50 amounted to 7 nM.
On the same count and under the same terms, to `Cc1cc(/N=c2\[nH]c(=O)n(CC3CCN(CC(=O)O)CC3)c(=O)n2Cc2ccc(Cl)cc2)ccc1OC(C)C` [Compound I-1648] belongs 160 nM; to `Cc1cc(Oc2ccc(/N=c3\[nH]c(=O)n(CC(=O)O)c(=O)n3Cc3ccc(Cl)cc3)cc2)ccn1` [Compound I-1800], 510 nM.
Consider `C[C@@H](C(=O)O)[C@H](C)n1c(=O)[nH]/c(=N\c2ccc3oc(-c4ccncc4)nc3c2)n(Cc2ccc(Cl)cc2)c1=O` [Compound I-1816], for which the IC50 is 300 nM.
`COC(=O)CCn1c(=O)[nH]/c(=N\C2CCCCC2)n(Cc2ccc(C)cc2)c1=O` [Compound I-1668]: the IC50 came to 309 nM.
Still for that read-out and setting: to `COC(=O)c1cc(/N=c2\[nH]c(=O)n(CCC(=O)O)c(=O)n2Cc2ccc(C)cc2)cn1C` [Compound I-1879] belongs 128 nM.
The same measure, in the same setting: to `Cc1nc2ccc(/N=c3\[nH]c(=O)n(CC(C)(C)C(=O)O)c(=O)n3Cc3ccc(Cl)cc3)cc2s1` [Compound I-1576] belongs 8 nM; to `CCc1nc2ccc(/N=c3\[nH]c(=O)n(CCC(=O)NC)c(=O)n3Cc3ccc(Cl)cc3)cc2s1` [Compound I-1738], 5 nM; to `CCOC(=O)CCn1c(=O)[nH]/c(=N\c2cccc(S(F)(F)(F)(F)F)c2)n(Cc2ccc(Cl)cc2)c1=O` [Compound I-1646], 43 nM.
Turning to `COC(=O)CCn1c(=O)[nH]/c(=N\c2cn(C)nc2C(=O)NC(C)C)n(Cc2ccc(C)cc2)c1=O` [Compound I-1804], the half-inhibitory concentration (IC50) worked out at 162 nM.
Consider `COC(=O)[C@H](C)Cn1c(=O)[nH]/c(=N\c2ccc(OC(C)C)cc2)n(Cc2ccc(C)cc2)c1=O` [Compound I-1104], for which the IC50 was 11 nM.
Same read-out and setting: to `COc1ccc(Oc2ccc(/N=c3\[nH]c(=O)n(CC(N)=O)c(=O)n3Cc3ccc(Cl)cc3)cc2)cn1` [Compound I-1856] belongs 8 nM; to `COC(=O)CCn1c(=O)[nH]/c(=N\c2cc(C(=O)OC)n(C)c2)n(Cc2ccc(C)cc2)c1=O` [Compound I-1836], 787 nM.
The same measure, in the same setting: to `C[C@@H](C(=O)O)[C@H](C)n1c(=O)[nH]/c(=N\c2ccc3c(c2)CCCC3)n(Cc2ccc(Cl)cc2)c1=O` [Compound I-1796] belongs 587 nM; to `C[C@@H](C(=O)O)[C@H](C)n1c(=O)[nH]/c(=N\c2ccc3c(c2)OCC(=O)N3)n(Cc2ccc(Cl)cc2)c1=O` [Compound I-1786], 621 nM.

The experiment is the same for the next values; noted with them: human P2X3 receptor, Test Example 1.
As for `C=C(C)c1ccc(/N=c2\[nH]c(=O)n(C[C@H](C)C(=O)OC)c(=O)n2Cc2ccc(C)cc2)cc1Cl` [Compound I-1491], the 50% inhibitory concentration (IC50) turned out to be 284 nM.
Same read-out and setting: to `CC(C)(C)OC(=O)NCCn1c(=O)[nH]/c(=N\c2ccc(Oc3ccon3)cc2)n(Cc2ccc(Cl)cc2)c1=O` [Compound I-2522] belongs 11 nM; to `CCc1cc2cc(/N=c3\[nH]c(=O)n(C[C@H]4COC(C)(C)O4)c(=O)n3Cc3ccc(Cl)cc3)ccc2o1` [Compound I-2314], 7 nM; to `Cn1c(=O)[nH]/c(=N\c2ccc(Oc3cc(C#N)ccn3)cc2)n(Cc2ccc(Cl)cc2)c1=O` [Compound I-2341], 10 nM.
Same read-out and setting: to `Cc1ccc(Cn2c(=O)n(C[C@H](C)C(=O)O)c(=O)[nH]/c2=N\c2ccc(OCC(F)F)cc2)cc1` [Compound I-0849] belongs 78 nM; to `COC(=O)[C@@H](C)Cn1c(=O)[nH]/c(=N\c2cc(Cl)cc(Cl)c2)n(Cc2ccc(C)cc2)c1=O` [Compound I-1497], 619 nM.
On the same count and under the same terms, to `Cc1nsc(Oc2ccc(/N=c3\[nH]c(=O)n(C[C@H](O)CO)c(=O)n3Cc3ccc(F)cc3)cc2)n1` [Compound I-2607] belongs 20 nM; to `CCn1c(=O)[nH]/c(=N\c2ccc(Oc3cc(C(=O)OC)sn3)cc2)n(Cc2ccc(Cl)cc2)c1=O` [Compound I-2247], 3 nM; to `CCCOc1ccc(/N=c2\[nH]c(=O)n(CC(F)(F)C(=O)O)c(=O)n2Cc2ccc(C)cc2)cc1` [Compound I-0871], 40 nM.
Turning to `Cc1ccc(Cn2c(=O)n(C[C@H](C)C(=O)O)c(=O)[nH]/c2=N\c2cc(Cl)cc(Cl)c2)cc1` [Compound I-1500], the concentration for half-maximal inhibition (IC50) turned out to be 897 nM.
The same measure, in the same setting: to `CCn1c(=O)[nH]/c(=N\c2ccc(Oc3cncc(C#N)c3)cc2)n(Cc2ccc(Cl)cn2)c1=O` [Compound I-2318] belongs 18 nM.
In the case of `CCn1c(=O)[nH]/c(=N\c2ccc(Oc3nccc(C(N)=O)n3)cc2)n(Cc2ccc(Cl)cc2)c1=O` [Compound I-2311], the IC50 was determined as 8 nM.
Same read-out and setting: to `Cn1c(=O)[nH]/c(=N\c2ccc(Oc3cc(C(N)=O)ccn3)cc2)n(Cc2ccc(Cl)cc2)c1=O` [Compound I-2376] belongs 20 nM; to `Cc1ccc(Cn2c(=O)n(CCC(=O)O)c(=O)[nH]/c2=N\c2ccc(Oc3cc(C#N)ccn3)cc2)cc1` [Compound I-2661], 15 nM.
Same read-out and setting: to `O=C(Cn1c(=O)[nH]/c(=N\c2ccc(Oc3ncccn3)cc2)n(Cc2ccc(Cl)cc2)c1=O)NCCO` [Compound I-2688] belongs 18 nM.
On the same count and under the same terms, to `O=c1[nH]/c(=N\c2ccc(Oc3nccs3)cc2)n(Cc2ccc(Cl)cc2)c(=O)n1C(CO)CO` [Compound I-2541] belongs 118 nM; to `O=c1[nH]/c(=N\c2ccc(Oc3ccon3)c(F)c2)n(Cc2ccc(Cl)cc2)c(=O)n1CC(CO)CO` [Compound I-2439], 4 nM.

Values taken from US9718790B2, “Triazine derivative and pharmaceutical composition having an analgesic activity comprising the same” (SHIONOGI & CO., LTD., priority 2010, dated 2017).
